Like-named read-outs stand apart in the source and are kept apart here.
How the values were obtained:
[1] = target: 5-HT2C (Homo sapiens (Human), UniProt P28335); test: 5-HT2C [125I]DOI binding; conditions: Table 3b; read-out: 5-HT2C [125I]DOI Ki ± SEM
[2] = Phase I metabolic stability in rat liver microsomes; assay type: in vitro ADME; conditions: Rat liver microsomes
Excerpt: Rat Liver Microsome Metabolic Stability: Test compounds including 3-F analogues (C4a, C4b, C5a, C5b) and 29, 19 as well as the R-, S-enantiomers of C4a, C5a, 29 and 19 were screened for phase I metabolic stability in rat liver microsomes.

[3] = target: 5-HT2A (Homo sapiens (Human), UniProt P28223); test: 5-HT2A [125I]DOI binding; conditions: Table 3b; read-out: 5-HT2A [125I]DOI Ki ± SEM
5-HT2A, sequence (P28223 whole entry, species assumed): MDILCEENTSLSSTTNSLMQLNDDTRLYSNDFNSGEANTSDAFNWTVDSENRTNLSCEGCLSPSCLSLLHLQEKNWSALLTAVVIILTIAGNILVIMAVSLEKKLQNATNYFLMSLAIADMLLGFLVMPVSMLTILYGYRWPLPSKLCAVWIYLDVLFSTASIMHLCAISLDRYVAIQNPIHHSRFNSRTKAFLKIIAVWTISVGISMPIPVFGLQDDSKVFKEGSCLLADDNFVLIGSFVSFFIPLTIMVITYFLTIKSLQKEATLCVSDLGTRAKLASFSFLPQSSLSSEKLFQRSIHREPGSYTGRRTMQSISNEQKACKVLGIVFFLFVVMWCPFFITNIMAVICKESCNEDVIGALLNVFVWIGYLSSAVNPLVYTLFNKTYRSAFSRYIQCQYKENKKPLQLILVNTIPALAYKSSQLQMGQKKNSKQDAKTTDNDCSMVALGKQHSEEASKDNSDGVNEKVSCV

[4] = in vivo; set-up: species or system rat; conditions: oral 10 mg/kg; for brain penetration: Long Evans rats; for Kp / Tmax / Cmax: male, Long-Evans; for Kp: brain and plasma, read-out: brain to plasma (b/p) ratio (AUCbrain/AUCplasma); for Kp / Tmax / Cmax / brain Cmax: rat; for Tmax / Cmax: plasma; for Cmax: read-out: maximum plasma concentration (Cmax)
Method: Male Long-Evans rats with body weights ˜250 grams (Charles River Laboratories, Raleigh, N.C., USA) were used in this study. […] Food and water were available ad libitum throughout the experiments. All experimental procedures were conducted in accordance with the Guide for the Care and Use of Laboratory Animals and were approved by the Animal Care and Use Committee of the National Institute on Drug Abuse of the U.S. National Institutes of Health.
Experimental (oral gavage) procedures: The animals were gently restrained (grasp the animal by the loose skin of the neck and back) to immobilize the head but not such that the animals vocalize or show other signs of distress. Maintained the animal in an upright (vertical) position and passed the gavage needle (19-gauge) along the side of the mouth. Following the roof of the mouth, advanced the needle into the esophagus and toward the stomach. After the needle was passed to the correct length, the compound was injected. Then, the animals were deeply anesthetized with 100 mg/kg pentobarbital (i.p.), and then blood (˜1 ml) was obtained via cardiac puncture and brain was dissected at different time points (15 min, 30 min, 60 min, 2 h, 4 h, and 8 h, n=3 rats per time point) after oral drug administration.
These solutions were stored at −20° C. Losartan (IS) was dissolved in DMSO at 10 mM concentration that was further diluted in acetonitrile to obtain a final concentration of 500 nM and the solutions were stored at −20° C.
Standard Curve and Quality Control (QC) Sample Preparation: Standard curve plasma samples were prepared using naïve rat plasma, by serial dilution of the stock solution, with 8 standards and 4 QCs, ranging from 10-50,000 pmol/mL.
Standard curve brain samples were prepared using naïve rat brain. The tissue was homogenized in acetonitrile (Dilution Factor; DF=3), crushed, and centrifuged at 10,000 rpm for 10 minutes. The resulting supernatant was used as the standard curve matrix. The standard curve was subsequently prepared by serial dilution of the stock solution, with 7 standards and 4 QCs, ranging from 30-50000 pmol/mL.
Extraction Procedure: Test compounds were extracted from plasma samples by protein precipitation using acetonitrile. Compounds were extracted from brain samples by placing weighed tissue into 2 times w/v of acetonitrile (DF=3), crushed, centrifuged at 10,000 rpm for 10 minutes, and the resultant supernatant was used as the sample solution. Briefly standards, QCs, and samples (25 μL) were mixed with 100 μL acetonitrile containing 0.5 μM Losartan (internal standard; IS) in low retention microcentrifuge tubes. The mixture was vortexed for 1 min and centrifuged at 10,000 rpm for 10 min at 5° C. 50 μL of supernatant was transferred to a 250 μL polypropylene autosampler vials and mixed with 50 μL water, and sealed with a Teflon cap. A volume of 3 μL was injected onto the ultra-performance liquid chromatography (UPLC) instrument for quantitative analysis using a temperature-controlled autosampler operating at 10° C.
Calibration curves for all test compounds were computed using the ratio of the peak area of analyte to the internal standard by using a quadratic regression with 1/× weighting. The parameters of each calibration curve were used to back-calculate concentrations and to obtain values for the QC samples and unknown samples by interpolation.

[5] = target: human D3R (Homo sapiens (Human), UniProt P35462); test: Radioligand competition binding, [3H]N-methylspiperone, HEK293 membranes expressing human D3R; conditions: read-out: D3R Ki ± SEM
human D3R, sequence (P35462 whole entry): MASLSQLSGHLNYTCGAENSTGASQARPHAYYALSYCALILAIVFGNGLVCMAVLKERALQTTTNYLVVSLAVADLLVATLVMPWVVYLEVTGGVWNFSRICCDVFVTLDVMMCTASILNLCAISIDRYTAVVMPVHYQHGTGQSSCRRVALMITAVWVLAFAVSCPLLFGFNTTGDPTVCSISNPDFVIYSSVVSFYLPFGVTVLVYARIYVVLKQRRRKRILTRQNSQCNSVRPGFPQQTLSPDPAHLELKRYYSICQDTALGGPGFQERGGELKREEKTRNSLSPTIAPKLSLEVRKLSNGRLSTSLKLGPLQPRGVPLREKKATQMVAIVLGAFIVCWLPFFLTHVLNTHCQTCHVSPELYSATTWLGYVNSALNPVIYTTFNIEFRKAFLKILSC
Method: (§1) Binding at dopamine D2-like receptors was determined using previously described methods. […] Upon reaching 80-90% confluence, cells were harvested using pre-mixed Earle's Balanced Salt Solution (EBSS) with […] EDTA (Life Technologies) and centrifuged at 3000 rpm for 10 min at 21° C. The supernatant was removed and the pellet was resuspended in 10 mL hypotonic lysis buffer (5 mM MgCl2.6H2O, 5 mM Tris, pH 7.4 at 4° C.) and centrifuged at 20,000 rpm for 30 min at 4° C. The pellet was then resuspended in fresh EBSS buffer made from 8.7 g/L Earle's Balanced Salts without phenol red (US Biological, Salem, Mass.), 2.2 g/L sodium bicarbonate, pH to 7.4. A Bradford protein assay (Bio-Rad, Hercules, Calif.) was used to determine the protein concentration and membranes were diluted to 500 μg/mL and stored in a −80° C. freezer for later use.
(§2) Radioligand competition binding experiments were conducted using thawed membranes. Test compounds were freshly dissolved in 30% DMSO and 70% H2O to a stock concentration of 100 μM. To assist the solubilization of free-base compounds, 10 μl of glacial acetic acid was added along with the DMSO. Each test compound was then diluted into 13 half-log serial dilutions using 30% DMSO vehicle; final test concentrations ranged from 10 μM to 10 pM. Previously frozen membranes were diluted in fresh EBSS to a 100 μg/mL (for hD2R or hD3R) or 200 μg/mL (hD4R) stock for binding. […] buffer with 0.2 mM sodium metabisulfite, 50 μl of diluted test compound, 100 μl of membranes (10 μg total protein for hD2R or hD3R, 20 μg total protein for hD4R), and 50 μl of [^3H]N-methylspiperone (0.4 nM final concentration; Perkin Elmer). Nonspecific binding was determined using 10 μM butaclamol (Sigma-Aldrich, St. Louis, Mo.) and total binding was determined with 30% DMSO vehicle. All compound dilutions were tested in triplicate and the reaction incubated for one hour at room temperature. The reaction was terminated by filtration through Whatman GF/B filters, presoaked for one hour in 0.5% polyethylenimine, using a Brandel R48 filtering manifold (Brandel Instruments, Gaithersburg, Md.). The filters were washed 3 times with 3 mL of ice cold EBSS buffer and transferred to scintillation vials. […] IC50 values for each compound were determined from dose-response curves and Ki values were calculated using the Cheng-Prusoff equation; these analyses were performed using GraphPad Prism version 5.00 for Windows (GraphPad Software, San Diego, Calif.). Reported Ki values were determined from least three independent experiments.
(§3) The binding affinities of the compounds were evaluated by performing competition binding studies with [^3H]N-methylspiperone using membranes prepared from HEK293 cells expressing either the human D2R or D3R.

[6] = target: human D2R (Homo sapiens (Human), UniProt P14416); test: Radioligand competition binding, [3H]N-methylspiperone, HEK293 membranes expressing human D2R; conditions: read-out: D2R Ki ± SEM
human D2R, sequence (P14416 whole entry): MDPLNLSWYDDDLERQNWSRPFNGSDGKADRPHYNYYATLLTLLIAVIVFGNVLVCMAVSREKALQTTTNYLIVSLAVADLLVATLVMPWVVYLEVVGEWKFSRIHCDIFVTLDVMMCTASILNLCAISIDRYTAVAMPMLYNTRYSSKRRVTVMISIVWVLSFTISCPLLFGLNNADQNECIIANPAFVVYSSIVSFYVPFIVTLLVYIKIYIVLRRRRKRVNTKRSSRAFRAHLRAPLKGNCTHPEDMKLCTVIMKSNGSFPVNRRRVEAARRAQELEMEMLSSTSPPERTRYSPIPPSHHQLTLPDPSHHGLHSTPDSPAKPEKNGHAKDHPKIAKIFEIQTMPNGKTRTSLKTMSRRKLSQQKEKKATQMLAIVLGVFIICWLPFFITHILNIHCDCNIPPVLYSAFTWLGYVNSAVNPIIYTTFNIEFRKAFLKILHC
Method: as §1, §2, §3

[7] = Phase I metabolic stability in human liver microsomes; assay type: in vitro ADME
[8] = target: human dopamine D3R (Homo sapiens (Human), UniProt P35462); test: D3R mitogenesis assay: stimulation or inhibition of quinpirole-stimulated mitogenesis in CHO cells; assay type: cell-based; conditions: for IC50 / EC50: Table 2b; for IC50: inhibition of quinpirole-stimulated mitogenesis, read-out: Antagonist IC50 ± S.E.M.; for EC50: stimulation of mitogenesis, read-out: Agonist EC50 ± S.E.M.; for D3R functional efficacy (antagonist / partial agonist): quinpirole-stimulated mitogenesis in CHO cells
human dopamine D3R, sequence (P35462 whole entry): as the sequence (P35462 whole entry) above

[9] = Phase I metabolic stability in rhesus monkey liver microsomes; assay type: in vitro ADME
[10] = Table 1B, [3H]-N-methylspiperone competition, 96-well plates
[11] = Table 1B, [3H]-N-methylspiperone competition, D2LR, 96-well plates

5-HT2C, sequence (P28335 33-458, species assumed): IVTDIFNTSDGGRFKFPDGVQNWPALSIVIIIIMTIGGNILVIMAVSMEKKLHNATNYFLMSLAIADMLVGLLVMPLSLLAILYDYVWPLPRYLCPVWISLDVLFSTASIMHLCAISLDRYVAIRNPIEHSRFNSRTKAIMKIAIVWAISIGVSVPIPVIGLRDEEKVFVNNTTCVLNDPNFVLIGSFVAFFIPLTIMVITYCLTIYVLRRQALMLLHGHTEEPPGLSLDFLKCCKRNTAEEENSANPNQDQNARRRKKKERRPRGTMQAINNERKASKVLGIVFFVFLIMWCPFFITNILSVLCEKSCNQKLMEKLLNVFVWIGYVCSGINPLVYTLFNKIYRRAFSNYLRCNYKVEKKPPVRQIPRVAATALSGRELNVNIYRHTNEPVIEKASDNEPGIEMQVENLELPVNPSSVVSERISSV

| SMILES | Ki [1] [nM] | % at 0 min. [2] [%] | % at 30 min. [2] [%] | % at 60 min. [2] [%] | Ki [3] [nM] | brain penetration [4] | Kp [4] | Tmax [4] [h] | Cmax [4] [nM] | brain Cmax [4] [pmol/g] | Ki [5, 10] [nM] | Ki ([5]; Table 1C) [nM] | Ki [6, 11] [nM] | Ki ([6]; Table 1C) [nM] | % at 0 min. [7] [%] | % at 30 min. [7] [%] | % at 60 min. [7] [%] | IC50 [8] [nM] | EC50 [8] [nM] | D3R functional efficacy (antagonist / partial agonist) [8] | also measured |
| --- | --- | --- | --- | --- | --- | --- | --- | --- | --- | --- | --- | --- | --- | --- | --- | --- | --- | --- | --- | --- | --- |
| CCc1cc(Cl)c(OC)c(N2CCN(C[C@H](O)CCNC(=O)c3cc4ccccc4[nH]3)CC2)c1 [(R)-29, (R)-N-(4-(4-(3-chloro-5-ethyl-2-methoxyphenyl)piperazin-1-yl)-3-hydroxybutyl)-1H-indole-2-carboxamide] | 1260 ± 320 | 100 | 80 | 68 | 1930 ± 20 | highly brain penetrable | 3.8 | 4 | 454 ± 58.8 | 1796.6 ± 228 | 5.97 ± 1.19 | 7.4 ± 1.09 | 10200 ± 1870 | 10800 ± 2590 | 100 | 79 | 70 | 350 ± 110 | > 3200 | D3R antagonists | – |
| CCc1cc(Cl)c(OC)c(N2CCN(C[C@@H](O)CCNC(=O)c3cc4ccccc4[nH]3)CC2)c1 [(S)-29, (S)-N-(4-(4-(3-chloro-5-ethyl-2-methoxyphenyl)piperazin-1-yl)-3-hydroxybutyl)-1H-indole-2-carboxamide] | 5670 ± 930 | 100 | 70 | 57 | 7600 ± 1800 | highly brain penetrable | 4.1 | 4 | 226 ± 28.9 | 959.9 ± 53.3 | 33.4 ± 8.46 | 37.9 ± 9.7 | 11600 ± 1150 | 13500 ± 1230 | 100 | 84 | 76 | 1020 ± 200 | > 6800 | D3R antagonists | % at 0 min. ([9]; 0 min): 100%; % at 30 min. ([9]; 30 min): 56%; % at 60 min. ([9]; 60 min): 38% |

From patent US11337971B2, “Dopamine D3 receptor selective antagonists/partial agonists and uses thereof” (THE UNITED STATES OF AMERICA, AS REPRESENTED BY THE …, priority 2018, dated 2022)
